Measurements taken from patent publication US20190367449A1, “PHENYLCREATINE, ITS USE AND METHOD FOR ITS PRODUCTION” (priority 2017, published 2019).

What was measured:
[1] = Body weight of mice on administration of creatine and phenylcreatine; format: in vivo; settings: 20 days daily into the stomach, creatine 0.3 mg per gram, phenylcreatine 50 mg per kg, control 6.4%
Protocol: In order to find out whether phenylcreatine is a functional analogue of creatine, and also how much its effect is related to the strength of creatine, the functional state of the mice was assessed, namely, the body weight was measured, activity and endurance in the test on white mongrel mice were assessed—males weighing 18-22 g.
Two experimental groups of mice and one control group (10 mice in each group) were selected. Initially, the animals were of equal mass. The animals were kept in accordance with the rules adopted by the European Convention for the Protection of Vertebrates used for experimental and other purposes (European Convention for the Protection of Vertebrates used for Experiments or for Other Scientific Purposes (EST No. 123), Strasbourg, 18 March 1986, M., 1990, 12 pp.). Animals were kept in standard vivarium conditions. The animals were killed by decapitation in accordance with the “Rules for carrying out work using experimental animals”, approved by order of the Ministry of Health of the USSR No. 742 of 13 Nov. 1984 (Bolshakov O P, Neznanov N G, Babakhnyan R V Didactic and ethical aspects of research on biomodels and on laboratory animals//Qualitative clinical practice. 2002. No. 1. P.58-61).
Within 20 days, the animals received an aqueous solution of creatine in a dosage of 0.3 mg per gram of weight. […]

white mongrel mice = assay: Endurance of mice in the treadmill test (running to complete exhaustion); format: in vivo; settings: for Running time of mice (M ± m): treadmill 29-31 m/min, 1 hour after administration
Protocol: In order to find out whether phenylcreatine is a functional analogue of creatine, and also how much its effect is related to the strength of creatine, the functional state of the mice was assessed, namely, the body weight was measured, activity and endurance in the test on white mongrel mice were assessed-males weighing 18-22 g. Two experimental groups of mice and one control group (10 mice in each group) were selected. Initially, the animals were of equal mass. The animals were kept in accordance with the rules adopted by the European Convention for the Protection of Vertebrates used for experimental and other purposes (European Convention for the Protection of Vertebrates used for Experiments or for Other Scientific Purposes (EST No. 123), Strasbourg, 18 March 1986, M., 1990, 12 pp.). Animals were kept in standard vivarium conditions. The animals were killed by decapitation in accordance with the “Rules for carrying out work using experimental animals”, approved by order of the Ministry of Health of the USSR No. 742 of 13 Nov. 1984 (Bolshakov […] Didactic and ethical aspects of research on biomodels and on laboratory animals//Qualitative clinical practice. 2002. No. 1. P.58-61). Within 20 days, the animals received an aqueous solution of creatine in a dosage of 0.3 mg per gram of weight. […] Upon administration, the drug was dissolved in 0.3 ml of water and injected into mice through a probe into the stomach daily in the morning, on an empty stomach. The animals of the control group received a similar volume of water. Phenylcreatine was also administered for 20 days in an amount of 50 mg per kg of body weight. Endurance of mice under physical exertion was assessed according to a standard procedure (Emirova L R Potention by […] of the action of medicinal substances that increase the endurance of athletes: dis . . . medical doctor: 14.00.25. M., 2004. 125 pp.) for the duration of running in the treadmill test. The animals of each group were subjected to daily training loads in a high load power mode, which was modelled by running on a treadmill at a speed of 29-31 m/min. The duration of daily mice training was 5 minutes. Endurance of mice was tested on the 1st, 5th, 10th, 15th, 20th and 25th days of training against the background of administration of drugs (or distilled water in the control). Endurance testing was conducted under the same conditions as training. Endurance was tested 1 hour after drug administration (Petrenko E R Comparative pharmacological study of adaptogenic properties of ginseng preparations: dis . . . candidate of biological sciences: 14.00.25., St. Petersburg, 1998. 126 pp.) until fatigue, the criterion of which was the lack of reaction of mice to stimulation of the legs and tail by electric current (Stratienko E N Influence of phenylethyl substituted derivatives of 3-oxypridine on the physical working capacity of mice under conditions of hypobaric hypoxia: dis . . . . Medical Candidate of Sciences Bryansk, 1996. DSP. 201 pp.). Running time was recorded in seconds. The study was carried out at rest, an hour after the administration of creatine or phenylcreatine, and immediately after the end of the run in the treadmill. Statistical processing of data was carried out in the program Statistica, for all data groups, using the Student's criterion. The following results were obtained concerning the effect of the intake of creatine and phenylcreatine on the endurance of mice. Dosages of 10 mg of phenylcreatine per animal and 300 mg of creatine per animal were used.

[2] = 15th day of the study, control 1.1 times
[3] = 20th day of the study, control 1.4 times
[4] = 25th day of research, control 1.7 times
[5] = 1 d, 10 mg phenylcreatine or 300 mg creatine per animal

Compound | Weight gain [1] [%] | Increase of running time to total fatigue (white mongrel mice; [2]) [times] | Increase of running time to total fatigue (white mongrel mice; [3]) [times] | Increase of running time to total fatigue (white mongrel mice; [4]) [times] | Running time of mice (M ± m) (white mongrel mice; [5]) [s] | Running time of mice (M ± m) (white mongrel mice; 5 d) [s] | Running time of mice (M ± m) (white mongrel mice; 10 d) [s] | Running time of mice (M ± m) (white mongrel mice; 15 d) [s] | Running time of mice (M ± m) (white mongrel mice; 20 d) [s] | Running time of mice (M ± m) (white mongrel mice; 25 d) [s] | Speed of increase of the effect relative to the group receiving creatine (white mongrel mice; mice treadmill) [times]
CN(CC(=O)O)C(=N)N [creatine, 2-(methylguanine)-ethane acid] | 9 | 2.8 | 4.5 | 5.6 | 626.00 ± 32.25 | 772.60 ± 33.07 | 775.80 ± 37.01 | 1811.30 ± 85.82 | 2794.70 ± 103.22 | 3697.5 ± 1373 | 
N=C(N)N(CC(=O)O)Cc1ccccc1 [phenylcreatine, N-benzyl-N-carbamimidoylglycine] | 15.4 | 6.4 | 6.9 | 6.7 | 588.23 ± 25 | 747.23 ± 17.06 | 1874.12 ± 114.43 | 3756.77 ± 97.02 | 4076.45 ± 276.57 | 3981.4 ± 202.8 | 2
